Values quoted from earlier work in patent US20180271924A1, “COMPOUND AND METHOD FOR REDUCING INFLAMMATION, PAIN, ALLERGY, FLU AND COLD SYMPTOMS” (priority 2018, published 2018).
Values after ≈ are worked out from the molar mass of the structure shown. Like-named read-outs stand apart in the source and are kept apart here.

Legend:
[1] = subcutaneous
[2] = DPPH
[3] = extract 100, 300, 500 mg/kg; diazepam 0.1-1 mg/kg
[4] = extract 100, 300, 500 mg/kg; diazepam 0.1-1 mg/kg; caffeine 10, 30, 100 mg/kg
[5] = for time of peak analgesic effect: pseudoakuammigine 5.0 mg/kg p.o., morphine 1.0 mg/kg s.c., indomethacin 2.5 mg/kg p.o.
[6] = extract 100-500 mg/kg; diclofenac 10-100 mg/kg; morphine 1-10 mg/kg
[7] = test system: dividing and non-dividing cells
[8] = 20.0 mg/kg
[9] = 0.5 mg/kg
[10] = test system: mu-, delta- and kappa-opioid binding sites
[11] = biological target: ORL1-binding sites (Cavia porcellus, UniProt P47748)
[12] = test system: opioid receptors
[13] = for pain relief, THC versus codeine: 36 cancer pain patients, 20 mg THC, 120 mg codeine
[14] = 5 mg THC; for analgesic effect: 50 mg codeine
[15] = 200 mg/kg
[16] = not given; remark: listed apart in the source
[17] = extract 100, 300, 500 mg/kg
[18] = not given; remark: listed apart in the source
[19] = not given; remark: listed apart in the source
[20] = anesthetized rats; reversed by naloxone
[21] = not given; remark: listed apart in the source
[22] = mitragynine 2 mg/mL
[23] = test system: mast cells; details: induced by compound 48/80
[24] = mouse, in vivo
[25] = extract 300, 500 mg/kg
[26] = biological target: T1, delta opioid receptor (Rattus norvegicus, UniProt P33533); details: rat CNS membranes
T1 construct: membranes prepared from rat central nervous system; from tissue; host or cells: rat central nervous system membranes

[27] = biological target: T2, ORL1 receptors (Cavia porcellus, UniProt P47748); details: guinea pig small intestine
T2 construct: functional ORL1 receptors in the guinea pig small intestine; from tissue; host or cells: guinea pig small intestine

[28] = not given; remark: listed apart in the source
[29] = biological target: T3, kappa receptors (Rattus norvegicus, UniProt P34975); details: rat CNS membranes
T3 construct: membranes prepared from rat central nervous system; from tissue; host or cells: rat central nervous system membranes

[30] = test system: mu-opioid binding sites; details: corresponds to K value
[31] = biological target: T4, mu receptors (Rattus norvegicus, UniProt P33535); details: rat CNS membranes
T4 construct: membranes prepared from rat central nervous system; from tissue; host or cells: rat central nervous system membranes

[32] = not given; remark: listed apart in the source
[33] = human studies
[34] = extract 100, 300, 500 mg/kg; remark: listed apart in the source
[35] = extract 100, 300, 500 mg/kg; diclofenac 10, 30, 100 mg/kg; 20 minutes observation
[36] = 50 mg THC daily

Chain of ORL1-binding sites (P47748 whole entry): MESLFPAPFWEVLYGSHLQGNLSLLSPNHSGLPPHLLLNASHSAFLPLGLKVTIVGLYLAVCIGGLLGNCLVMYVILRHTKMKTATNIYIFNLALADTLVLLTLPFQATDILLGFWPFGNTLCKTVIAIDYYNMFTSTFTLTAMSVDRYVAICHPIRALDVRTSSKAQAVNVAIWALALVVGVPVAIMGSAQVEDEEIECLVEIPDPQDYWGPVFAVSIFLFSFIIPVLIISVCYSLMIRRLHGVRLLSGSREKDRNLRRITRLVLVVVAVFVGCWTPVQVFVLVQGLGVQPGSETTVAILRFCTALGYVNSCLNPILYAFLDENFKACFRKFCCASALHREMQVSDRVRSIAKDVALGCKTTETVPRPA
T2 sequence (P47748 whole entry): as above
T4 sequence (P33535 whole entry): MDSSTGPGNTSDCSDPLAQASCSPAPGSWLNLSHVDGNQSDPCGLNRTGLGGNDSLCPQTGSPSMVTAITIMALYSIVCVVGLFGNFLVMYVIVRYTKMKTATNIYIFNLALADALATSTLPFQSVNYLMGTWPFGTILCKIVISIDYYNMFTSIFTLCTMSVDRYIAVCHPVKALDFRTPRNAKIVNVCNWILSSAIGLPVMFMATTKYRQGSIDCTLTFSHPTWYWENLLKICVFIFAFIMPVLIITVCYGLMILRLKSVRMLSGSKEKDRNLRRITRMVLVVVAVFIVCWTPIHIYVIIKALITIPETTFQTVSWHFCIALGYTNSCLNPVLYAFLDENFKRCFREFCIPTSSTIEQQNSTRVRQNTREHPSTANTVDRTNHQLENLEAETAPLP
T1 sequence (P33533 whole entry): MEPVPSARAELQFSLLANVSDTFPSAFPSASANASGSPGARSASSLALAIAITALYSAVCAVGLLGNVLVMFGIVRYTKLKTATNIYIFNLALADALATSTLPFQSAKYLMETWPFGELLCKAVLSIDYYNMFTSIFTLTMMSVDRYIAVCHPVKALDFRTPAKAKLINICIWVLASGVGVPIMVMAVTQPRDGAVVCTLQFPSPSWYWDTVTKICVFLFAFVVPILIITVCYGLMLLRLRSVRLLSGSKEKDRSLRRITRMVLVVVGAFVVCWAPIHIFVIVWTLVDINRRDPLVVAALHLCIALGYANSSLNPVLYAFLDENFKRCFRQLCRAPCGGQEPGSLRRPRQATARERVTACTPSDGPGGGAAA
T3 sequence (P34975 whole entry): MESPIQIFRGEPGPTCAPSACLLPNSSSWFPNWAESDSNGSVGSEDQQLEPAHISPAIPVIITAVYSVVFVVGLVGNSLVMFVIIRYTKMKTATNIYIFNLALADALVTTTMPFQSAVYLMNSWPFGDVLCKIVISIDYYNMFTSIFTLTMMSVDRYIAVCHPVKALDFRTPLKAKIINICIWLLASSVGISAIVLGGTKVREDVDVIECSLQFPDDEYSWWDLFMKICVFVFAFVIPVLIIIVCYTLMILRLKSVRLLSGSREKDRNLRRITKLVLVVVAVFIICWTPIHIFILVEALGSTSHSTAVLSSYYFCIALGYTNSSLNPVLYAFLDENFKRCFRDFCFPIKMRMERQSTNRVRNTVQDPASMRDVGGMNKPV

## CC[C@@H]1CN2CC[C@@]3(O)C(=Nc4cccc(OC)c43)[C@@H]2C[C@@H]1/C(=C\OC)C(=O)OC [7-hydroxymitragynine]
[1]
  gastrointestinal transit: inhibition of the gastrointestinal transit

## O=C1O[C@H]([C@@H](O)CO)C(O)=C1O [ascorbic acid]
[2]
  EC50 (free radical scavenging): 1.07 µg/mL (≈ 6.08 µM)

## CN1C(=O)CN=C(c2ccccc2)c2cc(Cl)ccc21 [diazepam]
[3]
  frequency of central zone entries: dose dependently increased the frequency of central zone entries
[4]
  effect in open arm test: dose dependently and significantly increased the percentage of open arm entries

## CN1CC[C@]23c4c5ccc(O)c4O[C@H]2[C@@H](O)C=C[C@H]3[C@H]1C5 [morphine, reference compound]
[5]; on molar basis
  ED50 (analgesic): 2.9 muM
[5]
  time of peak analgesic effect: 30 min
[6]
  tail withdrawal latency / antinociceptive effect: significant (P<0.0001) dose dependent increase in tail withdrawal latencies

## CN1CC[C@]2(c3cccc4c3N[C@@H]3N(C)CC[C@]43[C@@]34CCN(C)[C@@H]3Nc3ccccc34)c3ccccc3N[C@H]12 [hodgkinsine]
[7]
  cytotoxicity: low cytotoxicity
[8]
  analgesic activity, hot-plate: comparable with 6.0 mg/kg of morphine
[9]
  analgesic activity, tail-flick: comparable to that of 6.0 mg/kg of morphine

## C/C=C1/CN2CC[C@@]34c5ccccc5N(C)[C@]35OC[C@@]4(C(=O)OC)[C@H]1C[C@H]25 [pseudoakuammigine]
[5]; on molar basis
  ED50 (analgesic): 10 muM
  times less potent than indomethacin as an analgesic: 1.6 times
  times less potent than morphine as an analgesic: 3.5 times
[5]
  time of peak analgesic effect: 180 min
[10]
  opioid binding (words): low affinity
[10]; listed as Pseudoakuammigine
  opioid binding (words): bound equally to both mu and delta-opioid binding sites
[11]
  affinity for ORL1-binding sites (words): little affinity
50 mg kg, p.o.
  maximal inhibitory effect (anti-inflammatory): 44%
1.0, 5.0, 50 mg/kg p.o.
  activity on carrageenan-induced paw oedema: dose-dependent inhibitory activity
[12]; antagonised by naloxone
  effect on electrically-induced contractions: inhibited the electrically-induced contractions

## COc1ccc2c3c1O[C@H]1[C@@H](O)C=C[C@H]4[C@@H](C2)N(C)CC[C@@]341 [codeine]
[13]
  pain relief, THC versus codeine: equally effective
[14]
  analgesic effect: analgesic effect in comparison with placebo

## CC(=O)Oc1ccccc1C(=O)O [aspirin]
[15]
  mean percentage antipyrexia: 29.0%

## C=C(C)[C@@H]1CCC(C)=C[C@H]1c1c(O)cc(CCCCC)cc1O [CBD, cannabidiol]
[16]; oral, 100 mg/kg
  effectiveness at inhibition of PBQ-induced writhing: most effective

## COc1ccc2c3c1O[C@H]1[C@@H](O)CC[C@H]4[C@@H](C2)N(C)CC[C@@]341 [dihydrocodeine]
[17]
  cough count: dose-dependently reduced (P<0.05) cough count
  latency of cough: increased significantly (P<0.01) the latency of cough

## COc1ccc2cc3[n+](cc2c1OC)CCc1cc2c(cc1-3)OCO2 [Umbellatine, umbellatine]
[18]; 10-300 mg/kg
  analgesic activity, hot plate: dose-dependently active
[18]; 200 and 300 mg/kg
  analgesic activity, hot plate: comparable in efficacy to that obtained with 6 mg/kg of morphine
[19]; 100 mg/kg
  analgesic activity, tail-flick: clearly active
[19]; 200 and 300 mg/kg
  analgesic activity, tail-flick: comparable in efficacy to those of 6 mg/kg of morphine

## CC[C@@H]1CN2CCc3c([nH]c4cccc(OC)c34)[C@@H]2C[C@@H]1/C(=C\OC)C(=O)OC [mitragynine]
[20]
  gastric acid secretion: inhibition of 2-deoxy-D-glucose-stimulated gastric acid secretion in a dose dependent manner
[21]; dose levels of 800-900 mg/kg in rodents
  toxicity: no toxicity
[21]; oral 200 mg/kg, rats
  lethality: lethal effects
[22]
  nerve conduction, compound nerve action potential: blocked the nerve conduction

## O=C(O)c1cc(=O)c2c(OCC(O)COc3cccc4oc(C(=O)O)cc(=O)c34)cccc2o1 [sodium cromoglicate]
[23]
  mast cell degranulation: reduce significantly (P<0.01) mast cell degranulation
[24]
  tracheal phenol red secretion (muco-suppressant): caused a reduction (P<0.01) in tracheal phenol red secretion

## COC(=O)C1=CO[C@@H](C)[C@@H]2CN3CCc4c([nH]c5ccccc45)[C@H]3C[C@H]12 [akuammigine]
[10]
  opioid binding (words): no opioid binding
[10]; listed as Akuammigine
  opioid binding (words): no affinity for any of the opioid binding sites

## COc1ccc(CN(CCN(C)C)c2ccccn2)cc1 [mepyramine]
[25]
  histamine-induced bronchoconstriction and cough: reduced significantly (P<0.01-0.0001) bronchoconstriction and cough induced by histamine

## C/C=C1/CN2CC[C@@]34c5cc(O)ccc5N(C)[C@]35OC[C@@]4(C(=O)OC)[C@H]1C[C@H]25 [akuammine]
[26]
  affinity for delta opioid receptor relative to kappa and mu: ten times lower
[27]
  antagonism of nociceptin at functional ORL1 receptors: does not antagonize nociceptin
[28]
  solubility in water: slightly soluble in water
[10]
  opioid binding (words): low affinity
[11]
  affinity for ORL1-binding sites (words): neither akuammine nor any of the other alkaloids showed appreciable affinity
[11]; listed as Akuammine
  affinity for ORL1-binding sites (words): little affinity
[29]
  affinity for kappa receptors: micromolecular affinities
[30]
  affinity: 2.1 mM⁻¹
[31]
  affinity for mu receptors: micromolecular affinities
[12]
  character at opioid receptors: opioid antagonist

## CC(=O)Oc1cc(O[C@H](C)CCCc2ccccc2)cc2c1[C@@H]1C[C@H](O)CC[C@H]1[C@H](C)N2 [Levonantradol]
[32]; 1.5, 2, 2.5, 3 mg intramuscular, 56 patients
  pain relief versus placebo: all doses were significantly superior to placebo
[32]; in vivo
  patients reporting at least one side-effect: 57%
[33]
  analgesia versus placebo: superior to placebo
  sedation: almost half the patients reported sedation

## CN1[C@@H]2CC[C@H]1C[C@@H](OC(=O)C(CO)c1ccccc1)C2 (stereo partly drawn) [Atropine]
[34]
  protection against acetylcholine-induced bronchoconstriction and cough: significantly (P<0.05-0.0001) protected

## Cn1c(=O)c2c(ncn2C)n(C)c1=O [caffeine]
[4]
  effect in open arm test: anxiogenic effect

## O=C(O)Cc1ccccc1Nc1c(Cl)cccc1Cl [diclofenac]
[6]
  tail withdrawal latency / antinociceptive effect: increased tail withdrawal latencies
[35]
  abdominal writhes: suppressed the writhing

## CCCCCc1cc(O)c2c(c1)OC(C)(C)[C@@H]1CCC(C)=C[C@@H]21 [THC, delta-9-tetrahydrocannabinol]
[13]; 10 cancer pain patients, at doses of 15 and 20 mg
  pain relief versus placebo: pain relief significantly superior to placebo
[13]
  pain relief, THC versus codeine: equally effective
[14]
  effect on spasticity: significant effect on spasticity
  analgesic effect: analgesic effect in comparison with placebo
[33]
  analgesia versus placebo: significantly superior to placebo
  time of peak analgesia: around 5 hours
[36]
  morphine requirement: morphine requirement was significantly reduced (P<0.01)

## CCCCCc1cc(O)cc(O)c1 [olivetol]
[16]; oral
  dose of maximal effect in the PBQ test: about 100 mg/kg

## COc1ccc2c(c1)c(CC(=O)O)c(C)n2C(=O)c1ccc(Cl)cc1 [indomethacin, reference compound]
[5]; on molar basis
  ED50 (analgesic): 6.3 muM
[5]
  time of peak analgesic effect: 60 min

## CCCCCc1cc(O)c2c(c1)OC(C)(C)[C@@H]1CCC(C)=C[C@@H]21 [Delta 1-THC]
[16]; oral
  dose of maximal effect in the PBQ test: 10 mg/kg

## CCCCCc1cc(O)c2c(c1)OC(C)(C)c1ccc(C)cc1-2 [CNB, cannabinol]
[16]; doses higher than 10 mg/kg
  inhibition of PBQ-induced writhing: 40%
